Patent US7790721B2, “Pyrroloquinoxalinone inhibitors of poly(ADP-ribose)polymerase” (Abbott Laboratories, priority 2006, dated 2010)
pKi: −log10 of the molar value.

Target: T1, PARP-1 (Homo sapiens, UniProt P09874)
T1 construct: purchased Trevigen (Gaithersburg, Md.); host or cells: E. coli
Test: PARP1 assay (inhibition of PARP, [3H]-NAD+ / biotinylated histone H1, FlashPlate scintillation)
Type: biochemical
Conditions: recombinant human PARP, 1 nM enzyme, 1.5 μM [3H]-NAD+; inhibition curves at various substrate concentrations; read-out: PARP-1 (Ki)
Method: Nicotinamide[2,5′,8-3H]adenine dinucleotide and strepavidin SPA beads were purchased from Amersham Biosiences (Buckinghamshire, U.K.). […] NAD^+, histone, aminobenzamide, 3-amino benzamide and Calf Thymus DNA (dcDNA) were purchased from Sigma (St. Louis, Mo.). […] Biotinylated histone H1 was prepared by treating the protein with Sulfo-NHS-LC-Biotin from Pierce (Rockford, Ill.). The biotinylation reaction was conducted by slowly and intermittently adding 3 equivalents of 10 mM Sulfo-NHS-LC-Biotin to 100 μM Histone H1 in phosphate-buffered saline, pH 7.5, at 4° C. with gentle vortexing over 1 minute followed by subsequent 4° C. incubation for 1 hour. Streptavidin coated (FLASHPLATE PLUS®) microplates were purchased from Perkin Elmer (Waltham, Mass.).
PARP1 assay was conducted in PARP assay buffer containing 50 mM Tris pH 8.0, 1 mM DTT, 4 mM MgCl2. […] Auto reactions utilizing SPA bead-based detection were carried out in 100 μL volumes in white 96 well plates. Reactions were initiated by adding 50 μl of 2× NAD^+ substrate mixture to 50 μL of 2× enzyme mixture containing PARP and DNA. […] 170 μL of the stopped reaction mixtures were transferred to streptavidin FLASHPLATE PLUS®, incubated for 1 hour, and counted using a TOPCOUNT® microplate scintillation counter from Perkin Elmer (Waltham, Mass.).

T1 sequence (P09874 whole entry): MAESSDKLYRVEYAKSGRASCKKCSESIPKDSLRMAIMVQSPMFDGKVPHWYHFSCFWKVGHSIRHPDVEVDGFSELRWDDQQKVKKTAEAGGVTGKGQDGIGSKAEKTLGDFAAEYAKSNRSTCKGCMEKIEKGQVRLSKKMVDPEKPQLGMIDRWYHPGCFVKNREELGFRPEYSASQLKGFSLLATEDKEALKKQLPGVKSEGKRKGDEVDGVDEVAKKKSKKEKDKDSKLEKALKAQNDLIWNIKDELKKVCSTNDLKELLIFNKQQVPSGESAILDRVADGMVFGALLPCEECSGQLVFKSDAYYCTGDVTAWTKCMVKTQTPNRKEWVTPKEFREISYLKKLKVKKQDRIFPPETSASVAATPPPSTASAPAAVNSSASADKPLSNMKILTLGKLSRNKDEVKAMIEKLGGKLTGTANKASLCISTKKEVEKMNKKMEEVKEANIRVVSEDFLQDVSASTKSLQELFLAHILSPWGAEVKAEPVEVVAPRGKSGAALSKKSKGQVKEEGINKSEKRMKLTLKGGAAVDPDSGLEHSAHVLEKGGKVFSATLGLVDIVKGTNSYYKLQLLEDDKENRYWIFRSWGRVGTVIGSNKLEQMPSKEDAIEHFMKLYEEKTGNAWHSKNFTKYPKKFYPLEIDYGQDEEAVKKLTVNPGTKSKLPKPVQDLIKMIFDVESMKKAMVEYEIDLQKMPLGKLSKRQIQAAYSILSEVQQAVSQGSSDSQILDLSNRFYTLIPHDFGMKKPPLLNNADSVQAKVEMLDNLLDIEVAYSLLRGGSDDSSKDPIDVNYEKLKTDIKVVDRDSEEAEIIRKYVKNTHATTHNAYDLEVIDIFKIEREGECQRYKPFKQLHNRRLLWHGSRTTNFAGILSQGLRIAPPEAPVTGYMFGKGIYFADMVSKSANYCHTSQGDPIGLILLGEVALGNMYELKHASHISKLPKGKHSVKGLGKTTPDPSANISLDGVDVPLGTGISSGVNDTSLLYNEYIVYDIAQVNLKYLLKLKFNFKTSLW

| SMILES | pKi |
| --- | --- |
| O=c1[nH]c2cc(CNCCCN3CCCCC3)ccc2n2cccc12 [Example 69, 7-{[(3-piperidin-1-ylpropyl)amino]methyl}pyrrolo[1,2-a]quinoxalin-4(5H)-one] | 6.89 |
| O=C1Nc2cc(CN3CCCCC3)ccc2N2CCCCC12 (stereo not drawn) [Example 37, 3-(piperidin-1-ylmethyl)-7,8,9,10-tetrahydro-5H-pyrido[1,2-a]quinoxalin-6(6aH)-one] | 7.01 |
| CC(C)N(C)Cc1ccc2c(c1)NC(=O)C1CCCCN21 (stereo not drawn) [Example 41, 3-{[isopropyl(methyl)amino]methyl}-7,8,9,10-tetrahydro-5H-pyrido[1,2-a]quinoxalin-6(6aH)-one] | 6.55 |
| CCS(=O)(=O)N(Cc1ccc2[nH]c(=O)c3cccn3c2c1)C1CCC1 [Example 53, N-cyclobutyl-N-[(4-oxo-4,5-dihydropyrrolo[1,2-a]quinoxalin-8-yl)methyl]ethanesulfonamide] | 6.04 |
| CN(Cc1ccc2c(c1)NC(=O)C1CCCCN21)C1CCCCC1 (stereo not drawn) [Example 40, 3-{[cyclohexyl(methyl)amino]methyl}-7,8,9,10-tetrahydro-5H-pyrido[1,2-a]quinoxalin-6(6aH)-one] | 5.82 |
| O=C(Nc1cccc(S(=O)(=O)N2CCCCC2)c1)c1ccc2c(c1)[nH]c(=O)c1cccn12 [Example 75, 4-oxo-N-[3-(piperidin-1-ylsulfonyl)phenyl]4,5-dihydropyrrolo[1,2-a]quinoxaline-7-carboxamide] | 5.79 |
| O=c1[nH]c2cc(CNC3CCC3)ccc2n2cccc12 [Example 3, 7-((cyclobutylamino)methyl)pyrrolo[1,2-a]quinoxalin-4(5H)-one] | 7.08 |
| O=c1[nH]c2ccc(CN3CCOCC3)cc2n2cccc12 [Example 17, 8-(morpholin-4-ylmethyl)pyrrolo[1,2-a]quinoxalin-4(5H)-one] | 6.89 |
| O=c1[nH]c2cc(CN3CCCC3)ccc2n2ccnc12 [Example 21, 7-(pyrrolidin-1-ylmethyl)imidazo[1,2-a]quinoxalin-4(5H)-one] | 6.55 |
| CC(C)NCc1ccc2c(c1)NC(=O)C1CCCCN21 (stereo not drawn) [Example 38, 3-[(isopropylamino)methyl]-7,8,9,10-tetrahydro-5H-pyrido[1,2-a]quinoxalin-6(6aH)-one] | 6.47 |
| CC(C)N(Cc1ccc2[nH]c(=O)c3cccn3c2c1)S(=O)(=O)c1ccccc1 [Example 54, N-isopropyl-N-[(4-oxo-4,5-dihydropyrrolo[1,2-a]quinoxalin-8-yl)methyl]benzenesulfonamide] | 6.20 |
| O=C1NCc2cc(CNC3CCCC3)ccc2-n2cccc21 [Example 33, 8-((cyclopentylamino)methyl)-5,6-dihydro-4H-pyrrolo[1,2-a][1,4]benzodiazepin-4-one] | 6.26 |
| O=C(Nc1ccc(N2CCN(Cc3ccccc3)CC2)cc1)c1ccc2c(c1)[nH]c(=O)c1cccn12 [Example 83, N-[4-(4-benzylpiperazin-1-yl)phenyl]-4-oxo4,5-dihydropyrrolo[1,2-a]quinoxaline-7-carboxamide] | 7.24 |
| CS(=O)(=O)N(Cc1ccc2[nH]c(=O)c3cccn3c2c1)C1CC1 [Example 51, N-cyclopropyl-N-[(4-oxo4,5-dihydropyrrolo[1,2-a]quinoxalin-8-yl)methyl]methanesulfonamide] | 6.11 |
| CC(=O)N(Cc1ccc2c(c1)[nH]c(=O)c1cccn12)C1CCC1 [Example 55, N-cyclobutyl-N-[(4-oxo-4,5-dihydropyrrolo[1,2-a]quinoxalin-7-yl)methyl]acetamide] | 5.82 |
| O=C(NCCCN1CCCCC1)c1ccc2c(c1)[nH]c(=O)c1cccn12 [Example 70, 4-oxo-N-(3-piperidin-1-ylpropyl)-4,5-dihydropyrrolo[1,2-a]quinoxaline-7-carboxamide] | 6.86 |
| O=C(NCCN1CCSCC1)c1ccc2c(c1)[nH]c(=O)c1cccn12 [Example 78, 4-oxo-N-(2-thiomorpholin-4-ylethyl)-4,5-dihydropyrrolo[1,2-a]quinoxaline-7-carboxamide] | 7.07 |

| SMILES | pKi |
| --- | --- |
| O=c1[nH]c2cc(CNC3CCCC3)ccc2n2cccc12 [Example 4, 7-((cyclopentylamino)methyl)pyrrolo[1,2-a]quinoxalin-4(5H)-one] | 6.75 |
| CN(Cc1ccc2c(c1)NC(=O)C1CCCN21)C1CCCCC1 (stereo not drawn) [Example 47, 7-{[cyclohexyl(methyl)amino]methyl}-1,2,3,3a-tetrahydropyrrolo[1,2-a]quinoxalin-4(5H)-one] | 5.67 |
| O=C(NCC(=O)N1CCCC1)c1ccc2c(c1)[nH]c(=O)c1cccn12 [Example 73, 4-oxo-N-(2-oxo-2-(pyrrolidin-1-yl)ethyl)-4,5-dihydropyrrolo[1,2-a]quinoxaline-7-carboxamide] | 6.06 |
| O=c1[nH]c2ccc(CNC3CCC3)cc2n2cccc12 [Example 16, 8-((cyclobutylamino)methyl)pyrrolo[1,2-a]quinoxalin-4(5H)-one] | 7.29 |
| O=C1NCc2cc(CN3CCCCC3)ccc2-n2cccc21 [Example 57, 8-(piperidin-1-ylmethyl)-5,6-dihydro-4H-pyrrolo[1,2-a][1,4]benzodiazepin4-one] | 5.94 |
| O=c1[nH]c2cc(CNC3CCCCC3)ccc2n2cccc12 [Example 1, 7-((cyclohexylamino)methyl)pyrrolo[1,2-a]quinoxalin-4(5H)-one] | 6.32 |
| CCN(C)Cc1ccc2c(c1)NC(=O)C1CCCCN21 (stereo not drawn) [Example 39, 3-{[ethyl(methyl)amino]methyl}-7,8,9,10-tetrahydro-5H-pyrido[1,2-a]quinoxalin-6(6aH)-one] | 7.15 |
| O=c1[nH]c2ccc(CNC3CCCC3)cc2n2cccc12 [Example 18, 8-((cyclopentylamino)methyl)pyrrolo[1,2-a]quinoxalin-4(5H)-one] | 7.10 |
| COC(=O)CNCc1ccc2c(c1)[nH]c(=O)c1cccn12 [Example 59, Methyl N-[(4-oxo4,5-dihydropyrrolo[1,2-a]quinoxalin-7-yl)methyl]glycinate] | 6.27 |
| O=C1Nc2cc(CN3CCCCC3)ccc2N2CCCC12 (stereo not drawn) [Example 45, 7-(piperidin-1-ylmethyl)-1,2,3,3a-tetrahydropyrrolo[1,2-a]quinoxalin-4(5H)-one] | 6.84 |
| O=c1[nH]c2ccc(CNCC3CCCCC3)cc2n2cccc12 [Example 9, 8-(((cyclohexylmethyl)amino)methyl)pyrrolo[1,2-a]quinoxalin-4(5H)-one] | 6.69 |
| O=c1[nH]c2ccc(CN3CCCCC3)cc2n2cccc12 [Example 19, 8-(piperidin-1-ylmethyl)pyrrolo[1,2-a]quinoxalin-4(5H)-one] | 7.33 |
| CCN(C)Cc1ccc2c(c1)NC(=O)C1CCCN21 (stereo not drawn) [Example 46, 7-{[ethyl(methyl)amino]methyl}-1,2,3,3a-tetrahydropyrrolo[1,2-a]quinoxalin-4(5H)-one] | 6.89 |
| O=C1Nc2cc(CNC3CCCCC3)ccc2N2CCCCC12 (stereo not drawn) [Example 36, 3-[(cyclohexylamino)methyl]-7,8,9,10-tetrahydro-5H-pyrido[1,2-a]quinoxalin-6(6aH)-one] | 5.46 |
| O=C1NCc2cc(CNC3CCCCC3)ccc2-n2cccc21 [Example 58, 8-[(cyclohexylamino)methyl]-5,6-dihydro-4H-pyrrolo[1,2-a][1,4]benzodiazepin4-one] | 5.84 |
| CN(Cc1ccccc1)Cc1ccc2c(c1)NC(=O)C1CCCN21 (stereo not drawn) [Example 49, 7-{[benzyl(methyl)amino]methyl}-1,2,3,3a-tetrahydropyrrolo[1,2-a]quinoxalin-4(5H)-one] | 5.87 |
